Laboratory results from patent publication US10947213B1 (Merck Patent GmbH, priority 2015, dated 2021).
Where a name gives a salt, the structure may show the parent alone.

These molecules were tested against T1, TLR7/NFKb HEK cells (Homo sapiens, UniProt Q9NYK1) (assay: HEK Cell Assay (TLR7/NFKb reporter, Steady-Glo luciferase readout)). Details: 30 min compound preincubation, then R*48 agonist for 5 hours, read-out: Potency.
T1 construct: expressed in transfected cells; host or cells: HEK cells (TLR7/NFKb reporter line)
T1 sequence (Q9NYK1 27-1049): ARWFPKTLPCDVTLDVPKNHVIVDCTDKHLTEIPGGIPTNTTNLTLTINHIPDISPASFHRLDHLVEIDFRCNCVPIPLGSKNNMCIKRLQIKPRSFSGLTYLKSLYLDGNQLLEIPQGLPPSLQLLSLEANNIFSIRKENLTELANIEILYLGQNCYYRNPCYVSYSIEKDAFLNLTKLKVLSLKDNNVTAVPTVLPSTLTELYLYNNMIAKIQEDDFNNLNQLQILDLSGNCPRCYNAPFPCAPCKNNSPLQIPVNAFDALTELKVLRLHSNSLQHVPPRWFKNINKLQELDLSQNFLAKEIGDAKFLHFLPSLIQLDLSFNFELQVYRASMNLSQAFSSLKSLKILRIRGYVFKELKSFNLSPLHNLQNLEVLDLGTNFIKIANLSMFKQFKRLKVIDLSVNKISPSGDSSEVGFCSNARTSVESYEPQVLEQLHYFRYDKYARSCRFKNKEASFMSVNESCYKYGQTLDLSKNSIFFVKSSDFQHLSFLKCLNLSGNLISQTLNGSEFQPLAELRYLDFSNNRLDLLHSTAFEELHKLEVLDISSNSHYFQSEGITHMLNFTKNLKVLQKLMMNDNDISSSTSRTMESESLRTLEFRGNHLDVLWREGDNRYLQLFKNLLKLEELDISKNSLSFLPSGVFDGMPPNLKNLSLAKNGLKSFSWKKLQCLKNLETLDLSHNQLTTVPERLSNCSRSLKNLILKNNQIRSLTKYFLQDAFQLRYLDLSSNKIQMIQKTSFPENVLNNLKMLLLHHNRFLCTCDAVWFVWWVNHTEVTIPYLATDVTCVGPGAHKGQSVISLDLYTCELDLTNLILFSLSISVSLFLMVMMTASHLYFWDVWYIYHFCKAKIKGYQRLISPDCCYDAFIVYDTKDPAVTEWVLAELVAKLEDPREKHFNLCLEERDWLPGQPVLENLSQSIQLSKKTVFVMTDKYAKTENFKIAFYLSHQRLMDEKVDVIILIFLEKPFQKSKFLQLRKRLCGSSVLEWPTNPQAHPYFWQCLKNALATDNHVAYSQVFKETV
Format: cell-based
How it was run: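 Steady-Glo luminescence after 5 h stimulation with R*48 agonist, following 30 min compound preincubation. Assay run in HEK cells carrying a TLR7/NFKb luciferase reporter, plated at 5000 cells/well and grown 24 h at 37° C (10% CO2) before treatment.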

Row | SMILES | IC50 [µM]
1 | CC(C)[C@H](O)C(=O)N[C@@H]1C[C@H](C)CN(c2ccc(C(N)=O)c3ncccc23)C1 [Compound 181, 5-[(3R,5S)-3-[(2S)-2-hydroxy-3-methylbutanamido]-5-methylpiperidin-1-yl]quinoline-8-carboxamide] | > 10
2 | C[C@H]1C[C@@H](NC(=O)CC(C)(C)C)CN(c2ccc(C(N)=O)c3ncccc23)C1 [Compound 182, 5-[(3R,5S)-3-(3,3-dimethylbutanamido)-5-methylpiperidin-1-yl]quinoline-8-carboxamide] | 1 to 10
3 | COCCN[C@@H]1C[C@H](C)CN(c2ccc(C(N)=O)c3ncccc23)C1 [Compound 183, 5-[(3R,5S)-3-[(2-methoxyethyl)amino]-5-methylpiperidin-1-yl]quinoline-8-carboxamide] | > 10
4 | C[C@H]1C[C@@H](NC(=O)CN(C)C)CN(c2ccc(C(N)=O)c3ncccc23)C1 [Compound 186, 5-[(3R,5S)-3-[2-(dimethylamino)acetamido]-5-methylpiperidin-1-yl]quinoline-8-carboxamide] | > 10
5 | COc1ccc(N2C[C@@H](C)C[C@@H](NC(=O)CC(C)(C)C)C2)c2cccnc12 [Compound 189, N-[(3R,5S)-1-(8-methoxyquinolin-5-yl)-5-methylpiperidin-3-yl]-3,3-dimethylbutanamide] | 1 to 10
6 | COc1ccc(N2C[C@@H](C)C[C@@H](NC(=O)CN(C)C)C2)c2cccnc12 [Compound 193, 2-(dimethylamino)-N-[(3R,5S)-1-(8-methoxyquinolin-5-yl)-5-methylpiperidin-3-yl]acetamide] | 1 to 10
7 | COc1ccc(N2C[C@@H](C)C[C@@H](NC(=O)CC(C)(C)C)C2)c2nccnc12 [Compound 202, N-[(3R,5S)-1-(8-methoxyquinoxalin-5-yl)-5-methylpiperidin-3-yl]-3,3-dimethylbutanamide] | 1 to 10
8 | COc1ccc(N2C[C@@H](C)C[C@@H](NC(=O)CN(C)C)C2)c2nccnc12 [Compound 203, 2-(dimethylamino)-N-[(3R,5S)-1-(8-methoxyquinoxalin-5-yl)-5-methylpiperidin-3-yl]acetamide] | 1 to 10
9 | CC1(C)C[C@@H](N)CN(c2ccc(C#N)c3nccnc23)C1 [Compound 210, 8-[(5R)-5-amino-3,3-dimethylpiperidin-1-yl]quinoxaline-5-carbonitrile hydrochloride] | < 1
10 | CC(C)[C@@H](O)C(=O)N[C@H]1CN(c2ccc(C#N)c3nccnc23)CC(C)(C)C1 [Compound 213, (2R)—N-[(3R)-1-(8-cyanoquinoxalin-5-yl)-5,5-dimethylpiperidin-3-yl]-2-hydroxy-3-methylbutanamide] | < 1
11 | CC1(C)C[C@@H](NC(=O)CN2CCOCC2)CN(c2ccc(C#N)c3nccnc23)C1 [Compound 214, N-[(3R)-1-(8-cyanoquinoxalin-5-yl)-5,5-dimethylpiperidin-3-yl]-2-(morpholin-4-yl)acetamide] | 1 to 10
12 | CC(C)(C)CC(=O)N[C@H]1CN(c2ccc(C#N)c3nccnc23)CC(C)(C)C1 [Compound 215, N-[(3R)-1-(8-cyanoquinoxalin-5-yl)-5,5-dimethylpiperidin-3-yl]-3,3-dimethylbutanamide] | < 1
13 | COCCN[C@H]1CN(c2ccc(C#N)c3nccnc23)CC(C)(C)C1 [Compound 216, 8-[(5R)-5-[(2-methoxyethyl)amino]-3,3-dimethylpiperidin-1-yl]quinoxaline-5-carbonitrile] | < 1
14 | CN(C)CC(=O)N[C@H]1CN(c2ccc(C#N)c3nccnc23)CC(C)(C)C1 [Compound 217, N-[(3R)-1-(8-cyanoquinoxalin-5-yl)-5,5-dimethylpiperidin-3-yl]-2-(dimethylamino)acetamide] | < 1
15 | CC1(C)C[C@@H](NC(=O)CO)CN(c2ccc(C#N)c3nccnc23)C1 [Compound 218, N-[(3R)-1-(8-cyanoquinoxalin-5-yl)-5,5-dimethylpiperidin-3-yl]-2-hydroxyacetamide] | 1 to 10
16 | CN1CCC(N[C@H]2CN(c3ccc(C#N)c4nccnc34)CC(C)(C)C2)C1=O (stereo partly drawn) [Compound 219, 8-[(5R)-3,3-dimethyl-5-[(1-methyl-2-oxopyrrolidin-3-yl)amino]piperidin-1-yl]quinoxaline-5-carbonitrile] | < 1
17 | CC1(C)C[C@@H](NC(=O)CC(F)(F)F)CN(c2ccc(C#N)c3nccnc23)C1 [Compound 220, N-[(3R)-1-(8-cyanoquinoxalin-5-yl)-5,5-dimethylpiperidin-3-yl]-3,3,3-trifluoropropanamide] | 1 to 10
18 | C[C@H]1C[C@@H](NC(=O)C2(O)CC2)CN(c2ccc(C#N)c3nccnc23)C1 [Compound 230, N-[(3R,5S)-1-(8-cyanoquinoxalin-5-yl)-5-methylpiperidin-3-yl]-1-hydroxycyclopropane-1-carboxamide] | < 1
19 | C[C@H]1C[C@@H](NC(C)(C)CO)CN(c2ccc(C#N)c3nccnc23)C1 [Compound 231, 8-[(3R,5S)-3-[(1-hydroxy-2-methylpropan-2-yl)amino]-5-methylpiperidin-1-yl]quinoxaline-5-carbonitrile] | < 1

Results, then the molecule that gave them:

Row | IC50 [µM] | SMILES
20 | < 1 | COc1ccc(N2C[C@@H](C)C[C@@H](N)C2)c2cccnc12 [Compound 187, (3R,5S)-1-(8-methoxyquinolin-5-yl)-5-methylpiperidin-3-amine]
21 | < 1 | COc1ccc(N2C[C@@H](C)C[C@@H](NC(=O)[C@@H](O)C(C)C)C2)c2cccnc12 [Compound 188, (2S)-2-hydroxy-N-[(3R,5S)-1-(8-methoxyquinolin-5-yl)-5-methylpiperidin-3-yl]-3-methylbutanamide]
22 | < 1 | COCCN[C@@H]1C[C@H](C)CN(c2ccc(OC)c3ncccc23)C1 [Compound 190, (3R,5S)—N-(2-methoxyethyl)-1-(8-methoxyquinolin-5-yl)-5-methylpiperidin-3-amine]
23 | < 1 | CC(C)[C@H](O)C(=O)N[C@@H]1C[C@H](C)CN(c2ccc(C(F)(F)F)c3ncccc23)C1 [Compound 194, (2S)-2-hydroxy-3-methyl-N-[(3R,5S)-5-methyl-1-[8-(trifluoromethyl)quinolin-5-yl]piperidin-3-yl]butanamide]
24 | < 1 | C[C@H]1C[C@@H](NC(=O)CC(C)(C)C)CN(c2ccc(C(F)(F)F)c3ncccc23)C1 [Compound 195, 3,3-dimethyl-N-[(3R,5S)-5-methyl-1-[8-(trifluoromethyl)quinolin-5-yl]piperidin-3-yl]butanamide]
25 | < 1 | COCCN[C@@H]1C[C@H](C)CN(c2ccc(C(F)(F)F)c3ncccc23)C1 [Compound 196, (3R,5S)—N-(2-methoxyethyl)-5-methyl-1-[8-(trifluoromethyl)quinolin-5-yl]piperidin-3-amine]
26 | < 1 | C[C@H]1C[C@@H](NC(=O)CN(C)C)CN(c2ccc(C(F)(F)F)c3ncccc23)C1 [Compound 199, 2-(dimethylamino)-N-[(3R,5S)-5-methyl-1-[8-(trifluoromethyl)quinolin-5-yl]piperidin-3-yl]acetamide]
27 | < 1 | C[C@H]1C[C@@H](N)CN(c2ccc(O)c3ncccc23)C1 [Compound 200, 5-[(3R,5S)-3-amino-5-methylpiperidin-1-yl]quinolin-8-ol hydrochloride]
28 | < 1 | CC(C)[C@H](O)C(=O)N[C@@H]1C[C@H](C)CN(c2ccc(C(F)F)c3ncccc23)C1 [Compound 204, (2S)—N-[(3R,5S)-1-[8-(difluoromethyl)quinolin-5-yl]-5-methylpiperidin-3-yl]-2-hydroxy-3-methylbutanamide]
29 | < 1 | C[C@H]1C[C@@H](NC(=O)CC(C)(C)C)CN(c2ccc(C(F)F)c3ncccc23)C1 [Compound 205, N-[(3R,5S)-1-[8-(difluoromethyl)quinolin-5-yl]-5-methylpiperidin-3-yl]-3,3-dimethylbutanamide]
30 | < 1 | COCCN[C@@H]1C[C@H](C)CN(c2ccc(C(F)F)c3ncccc23)C1 [Compound 206, (3R,5S)-1-[8-(difluoromethyl)quinolin-5-yl]-N-(2-methoxyethyl)-5-methylpiperidin-3-amine]
31 | < 1 | C[C@H]1C[C@@H](NC(=O)CN(C)C)CN(c2ccc(C(F)F)c3ncccc23)C1 [Compound 209, N-[(3R,5S)-1-[8-(difluoromethyl)quinolin-5-yl]-5-methylpiperidin-3-yl]-2-(dimethylamino)acetamide]
